The values below come from ChEMBL document CHEMBL1201862, “PubChem BioAssay data set” (2004).

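These data come from cells grown in 96-well plates and exposed to compound for 48 hours at five concentrations. GI50 is the concentration that inhibits growth by half.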 Calls of active or inactive are those of the source. No stated cut-off is given here; in the data, active = GI50 up to about 1.1 µM and inactive = higher. Where a SMILES comes first, the peptide text is derived from it. [ ]: non-standard residue; d: D form. The star is where a group is joined. Phe(2-OMe) = COc1ccccc1C[CH](N)C(=O)O; Cbz = O=C(OCc1ccccc1)*; OBn = c1ccc(CO*)cc1 Where only a bound is given, the exact number is not on record here.

Common to all, as to assay: inhibition of tumour cell growth, NCI panel, 48 h
The test system of test [1] is A549.
Test [2] concerns SF-295.
The subject of test [3] is SNB-75.
Test [4] concerns OVCAR-5.
The subject of test [5] is COLO 205.
In test [6] the test system is SR.
Test [7] deals with RXF 393.
Test [8] concerns OVCAR-3.
In test [9] the test system is K562.
Test [10] relates to NCI-H460.
Test [11] deals with HCC 2998.
Test [12] relates to RPMI-8226.
In test [13] the test system is SF-539.
The test system of test [14] is SK-MEL-28.
The subject of test [15] is TK-10.
The test system of test [16] is HT-29.
Test [17] deals with EKVX.
Test [18] relates to HOP-92.
Test [19] concerns NCI-H23.
The test system of test [20] is A498.

For `CC(/C=C/C(=O)c1sc(C(N)=S)nc1C)=C\c1ccccc1`, the GI50 in test [1] was > 100 µM (inactive); in [2] it was > 100 µM (inactive); in test [3], > 100 µM (inactive); in test [4], > 100 µM (inactive); in test [5], 54 µM (inactive); in test [6], 31.9 µM (inactive). Further, the GI50 is > 100 µM (inactive) in [7]; > 100 µM (inactive) in test [8]; > 100 µM (inactive) in [9]; 35.4 µM (inactive) in test [10]; > 100 µM (inactive) in test [11]; 19.3 µM (inactive) in [12]. The GI50 in [13], in test [14], in [15], in test [16], in test [17] and in [18] was > 100 µM (inactive) throughout. The GI50 in [19] and in [20] was > 100 µM (inactive) each time.

In the case of `NS(=O)(=O)c1nnc(NS(=O)(=O)c2ccccc2C(=O)O)s1`, the GI50 in test [1], in test [2], in test [4], in [5], in test [6] and in test [7] was > 100 µM (inactive) in each case. In addition, the GI50 in test [8] is > 100 µM (inactive); in [9] it was 40.7 µM (inactive); in test [10], > 100 µM (inactive); in test [11], > 100 µM (inactive); in test [12], > 100 µM (inactive); in test [14], > 100 µM (inactive). Further, the GI50 in [15], in test [16], in [17], in test [18], in [19] and in test [20] was > 100 µM (inactive) in each case.

For the compound `CCOC(=O)NC(Nc1cccc(F)c1)(C(F)(F)F)C(F)(F)F`, the GI50 in test [1] was > 100 µM (inactive); in [2], > 100 µM (inactive); in test [3] it was > 100 µM (inactive); in test [4] it was > 100 µM (inactive); in test [5], > 100 µM (inactive); in test [6] it was 7 µM (inactive). Further, the GI50 is > 100 µM (inactive) in test [7]; > 100 µM (inactive) in test [8]; 48.4 µM (inactive) in test [9]; > 100 µM (inactive) in test [10]; > 100 µM (inactive) in test [11]; > 100 µM (inactive) in test [12]. Besides, the GI50 in test [13], in test [14], in test [15], in test [16], in [17] and in test [18] was > 100 µM (inactive) throughout. Also, the GI50 in test [19] and in test [20] was > 100 µM (inactive) in each case.

Take `COc1cc2c(cc1C)NC(=O)/C2=C/c1c(Cl)[nH]c2ccccc12`: the GI50 was 6.05 µM (inactive) in test [1]; 1.77 µM (inactive) in test [2]; 7.87 µM (inactive) in test [3]; 7.87 µM (inactive) in test [4]; 2.92 µM (inactive) in test [5]; 3.55 µM (inactive) in test [6]. The GI50 in test [7] was 8.07 µM (inactive); in test [8], 2.26 µM (inactive); in test [9], 3.83 µM (inactive); in [10], 3.92 µM (inactive); in test [11] it was 3.89 µM (inactive); in test [12], 4.6 µM (inactive). For the same compound, the GI50 was 1.3 µM (inactive) in test [13]; 7 µM (inactive) in [14]; 10.4 µM (inactive) in test [15]; 3.94 µM (inactive) in test [16]; 6.68 µM (inactive) in test [17]; 11.2 µM (inactive) in test [18]. Also, the GI50 in [19] was 10.1 µM (inactive); in [20], 4.57 µM (inactive).

As for `COC(=O)C(Cc1ccccc1OC)NC(=O)C(CC(=O)OCc1ccccc1)NC(=O)OCc1ccccc1` (configuration not stated) (Cbz-Asp(OBn)-[Phe(2-OMe)]-OMe; configuration not given here), the GI50 in test [1] was 60.3 µM (inactive); in [3], > 100 µM (inactive); in test [4], > 100 µM (inactive); in test [5], 46.3 µM (inactive); in test [6], 27.9 µM (inactive); in test [7], 70.8 µM (inactive). Further, the GI50 in test [9] was 61.5 µM (inactive); in test [10], 34.4 µM (inactive); in test [11] it was > 100 µM (inactive); in test [12], 41 µM (inactive); in test [14], 38.6 µM (inactive); in [15] it was > 100 µM (inactive). For the same compound, the GI50 was 65.3 µM (inactive) in [16]; > 100 µM (inactive) in test [17]; > 100 µM (inactive) in [18]; > 100 µM (inactive) in test [19]; 88.1 µM (inactive) in [20].

With `COC(=O)c1c(O)ccc2c1c1c(n2Cc2ccccc2OC)C(=O)c2ccccc2C1=O`, the GI50 is 5.64 µM (inactive) in [1]; 18.1 µM (inactive) in test [2]; 21.1 µM (inactive) in test [4]; 1.83 µM (inactive) in test [5]; 0.0483 µM (active) in test [6]; 13.1 µM (inactive) in test [7]. Besides, the GI50 in [8] was 10 µM (inactive); in [9], 1.67 µM (inactive); in [10], 3.78 µM (inactive); in [11] it was 6.27 µM (inactive); in test [12], 1.86 µM (inactive); in test [13], 19.3 µM (inactive). The GI50 in test [14] was 15.8 µM (inactive); in test [15] it was 23.2 µM (inactive); in test [16], 8.18 µM (inactive); in test [17], 24.5 µM (inactive); in [18], 3.78 µM (inactive); in [19], 14.1 µM (inactive). For the same compound, the GI50 in test [20] is 40 µM (inactive).

Take `O=C(Nc1ccccc1[N+](=O)[O-])/C(=N/Nc1cccc(Cl)c1)c1c(O)c2ccccc2oc1=O`: the GI50 was > 100 µM (inactive) in [1]; > 100 µM (inactive) in test [2]; > 100 µM (inactive) in test [3]; > 100 µM (inactive) in [4]; 17.7 µM (inactive) in test [5]; 0.0357 µM (active) in test [6]. The GI50 in [7] was > 100 µM (inactive); in [8], 35.4 µM (inactive); in test [9], 25.2 µM (inactive); in test [10] it was 38.5 µM (inactive); in test [11], 84.1 µM (inactive); in [13] it was > 100 µM (inactive). Further, the GI50 in test [14] was > 100 µM (inactive); in test [15] it was > 100 µM (inactive); in test [16], > 100 µM (inactive); in test [17], > 100 µM (inactive); in test [18] it was 23.6 µM (inactive); in [19] it was 24.9 µM (inactive). Besides, the GI50 in test [20] was > 100 µM (inactive).

For `CCN(CC)CCCC(C)NC(=O)c1cc(-c2nccn2C)nc2ccc(C)cc12` (configuration not stated), the GI50 in test [1] was > 100 µM (inactive); in test [3] it was > 100 µM (inactive); in test [4], > 100 µM (inactive); in test [5] it was > 100 µM (inactive); in [6] it was < 0.01 µM (active); in test [7] it was > 100 µM (inactive). For the same compound, the GI50 in test [10] is 33 µM (inactive); in test [11], > 100 µM (inactive); in test [12], > 100 µM (inactive); in [13], > 100 µM (inactive); in test [14], > 100 µM (inactive); in [15], > 100 µM (inactive). For the same compound, the GI50 in test [16], in test [17], in test [18], in [19] and in test [20] was > 100 µM (inactive) throughout.

With `CN(C)c1ccc(C(=NNC(=O)c2cc3ccccc3[nH]2)c2ccc(N(C)C)cc2)cc1`, the GI50 was 0.637 µM (active) in test [1]; 0.303 µM (active) in [2]; 0.632 µM (active) in test [3]; 0.94 µM (active) in test [4]; 0.305 µM (active) in [5]; < 0.033 µM (active) in test [6]. Moreover, the GI50 in test [7] is 1.15 µM (inactive); in test [8], 0.276 µM (active); in test [9], 0.0792 µM (active); in [10], 0.348 µM (active); in test [11] it was 0.193 µM (active); in [12], 0.321 µM (active). Besides, the GI50 is 0.573 µM (active) in [13]; 4.56 µM (inactive) in [15]; 0.195 µM (active) in test [16]; 1.85 µM (inactive) in [17]; 3.22 µM (inactive) in test [18]; 0.912 µM (active) in test [19]. For the same compound, the GI50 in [20] is 1.05 µM (active).

For `N#Cc1nc(CN2C(=O)c3ccccc3C2=O)oc1N`, the GI50 in [1], in test [2], in test [3], in test [4], in test [5] and in test [6] was > 100 µM (inactive) each time. Besides, the GI50 in [7], in test [8], in [9], in [10], in test [11] and in test [12] was > 100 µM (inactive) each time. The GI50 in test [13], in test [14], in test [15], in test [16], in test [18] and in [20] was > 100 µM (inactive) in each case.
